These results are taken from US7135468B2, “Antibacterial compounds” (Abbott Laboratories, priority 2004, dated 2006).

This experiment addresses bacterial protein synthesis (S30 Streptococcus pneumoniae extract). Put plainly: Translation assay, firefly luciferase reporter system with S30 Streptococcus pneumoniae extract. It is filed as biochemical, Streptococcus pneumoniae ATCC 46919. Particulars: cell-free S30 extract from quinolone-susceptible S. pneumoniae ATCC 46919, luciferase mRNA; read-out: IC50, concentration causing 50% inhibition of bacterial protein synthesis. As for the experimental part:
Bacterial protein synthesis inhibitory activity of representative compounds of this invention having formula (I) and the commercially-available antibacterials in TABLE 2 was determined by translation assays using the firefly luciferase reporter system described by Murray et al., (2001), “Staphylococcus aureus Cell Extract Transcription-Translation Assay: Firefly Luciferase Reporter System for Evaluating Protein Translation Inhibitors,” Antimicrob. Agents Chemother. 45(6): 1900–1904, but replacing the Staphylococcus aureus S30 extract described therein with S30 Streptococcus pneumoniae extract from quinolone-succeptable Streptococcus pneumoniae ATCC 46919, and replacing plasmid coding for the luciferase gene with mRNA (encoding produced by in an in vitro environment transcription from the plasmid pAS10rbs3) which encoded the luciferase gene with an upstream Streptococcus pneumoniae promoter and Shine-Dalgarno site.

Take `CC(=O)NC[C@H]1CN(c2ccc(N3CCOCC3)c(F)c2)C(=O)O1` [Linezolid]: the IC50 was about 3 µM.
